# Assay results published in US12054742B2, “Compositions and methods to derive mesodermal lineage cells and mixed tissue organoids from embryonic stem cells” (THE REGENTS OF THE UNIVERSITY OF MICHIGAN, priority 2018, dated 2024).
# Key:
# Type in all cases: cell-based, mouse
# [1] = system: hWDR5Dox;mWdr5KO (mWdr5 KO) organoids; test: Cell proliferation of differentiating mWdr5 KO organoids in retinal culture conditions (EB day 4); settings: Dox added at T0h, organoid day 4
# Method: (§1) FIGS. 2A-2H. WDR5 regulates retinal progenitor cell fate transition in a dose- and time-dependent manner. (FIG. 2A) Tight control of exogenous HA-hWDR5 during early time window of ESC differentiation. hWDR5^Dox;mWdr5^KO (i.e., mWdr5 KO) ESCs were maintained in Dox (+) ESC media and Dox was removed upon ESC differentiation (day 0 or EB day 0 (EB0)). At different time points (0 h, 24 h, 36 h, 48 h, 60 h), cells were collected and subjected to probe HA-hWDR5 expression (a-HA). Tubulin: loading control. (FIG. 2B) Dose-dependent induction of exogenous hWDR5 and H3K4me during ESC differentiation. mWdr5 KO ESCs were maintained in Dox (+) ESC media and Dox was removed upon ESC differentiation (day 0). At 12 h post differentiation, different doses of Dox were added to mWdr5 KO EBs. At embryoid body (EB) day 4 (EB4), EBs were collected and extracted histones were subjected to western blotting. Total H3 was used as loading control. […] Cell proliferation was determined at EB day 4 (FIG. 2C) and Rx-GFP positive retinal progenitor cells were scored by flow cytometry at day 5 (FIG. 2D). […] Cell proliferation was recorded at EB day 4 (FIG. 2E) and Rx-GFP positive retinal progenitor cells at EB day 5 were scored by flow cytometry (FIG. 2F). […] (FIG. 2H) Wdr5 regulates RPC differentiation in a time-dependent manner as determined by Rx/Rax mRNA RT-qPCR. […]
# [2] = system: hWDR5Dox;mWdr5KO (mWdr5 KO) organoids; test: Rx-GFP (+) retinal lineage cell differentiation scored by flow cytometry (day 5); settings: Dox from T0h
# Method: as §1
# [3] = system: hWDR5Dox;mWdr5KO organoids; test: RT-qPCR of cardiomyocyte markers cTnT and aMHC after late (T48h) induction of hWDR5; settings: Dox added at T48h
# Method: FIGS. 4A-4K. Late induction of hWDR5 skews ESC differentiation from retinal neuroectoderm to cardiac mesoderm. (FIGS. 4A, 4B, 4C and 4D) RT-qPCR analysis of pluripotent marker (Oct4, FIG. 4A), neuroepithelial marker (N-Cadherin, FIG. 4B), retinal ectoderm marker (Rax/Rx, FIG. 4C) and cardiomyocyte mesoderm marker (cTnT, FIG. 4D) during time-course differentiation of WT, early induction (T12h), late induction (T36h or T48h) of exogenous hWDR5 in hWDR5^Dox;mWdr5^KO (i.e., mWdr5 KO) EBs. […] (FIG. 4H) Critical time points for exogenous hWDR5 linked to cardiomyocyte differentiation were determined by cTnT RT-qPCR. […] Induction of early mesoderm marker (T/Brachyury) and cTnT was determined by RT-qPCR.
# Trizol reagent (ThermoFisher Scientific) and RNeasy mini kit (Qiagen) were utilized for RNA isolation from ESCs or EBs. […] Data were automatically analyzed using Bio-Rad CFX manager software using Δ/ΔCt method.
# In various aspects of the disclosure, quantitative reverse transcription PCR (RT-qPCR) is used to analyze results obtained in the examples. […] Data is automatically analyzed using Bio-Rad CFX manager software using Δ/ΔCt method.
# Third, immunohistochemistry (IHC) was used to assay for cardiomyocyte-specific proteins in T48h conditions. […] Neither cTnT nor Myh1e were detected in WT and T12h conditions. […]
smiles,measurement,setting,value
"C[C@H]1c2cccc(O)c2C(=O)C2=C(O)[C@]3(O)C(=O)C(C(N)=O)=C(O)[C@@H](N(C)C)[C@@H]3[C@@H](O)[C@@H]21 [Dox, doxycycline]",Dox concentration at which rescue of the proliferation defect reached a plateau,[1],250 ng/mL
same,Dox dose at which proportion of Rx-GFP (+) RLCs reached a plateau,[2],500 ng/mL
same,Dox dose at which proportion of Rx-GFP (+) RLCs was comparable to WT controls,[2],250 ng/mL
same,Dox concentrations that induced cTnT and aMHC expression,[3],up to 125 ng/ml
